Where two headings read alike, the source gives them in different places.
Target: Recombinant human cathepsin S (CatS) (Homo sapiens, UniProt P25774)
Assay: Recombinant human cathepsin S (CatS) inhibition assay, fluorogenic substrate Z-Valine-Valine-Arginine-AMC;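 also: Baculovirus-expressed CatS in pH 5.0 sodium acetate buffer with DTT and NaCl, fluorescence read each minute over 20 min, inhibition derived from rate slope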

Sequence of Recombinant human cathepsin S (CatS) (P25774 115-331): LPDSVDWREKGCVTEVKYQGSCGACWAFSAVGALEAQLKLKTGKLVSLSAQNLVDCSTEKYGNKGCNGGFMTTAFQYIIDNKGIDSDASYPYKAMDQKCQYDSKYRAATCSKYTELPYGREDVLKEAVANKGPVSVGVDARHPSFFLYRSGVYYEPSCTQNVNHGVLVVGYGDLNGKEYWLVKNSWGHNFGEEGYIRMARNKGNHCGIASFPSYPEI

Compound	IC50 (CatS IC50) [nM]	IC50 [nM]
CS(=O)(=O)N1CCc2c(c(-c3ccc(Cl)c(C#Cc4cccc(CNCC5CCOCC5)c4)c3)nn2CCCN2CCOCC2)C1 [Example 185, 1-[3-({2-Chloro-5-[5-(methylsulfonyl)-1-(3-morpholin-4-ylpropyl)-4,5,6,7-tetrahydro-1H-pyrazolo[4,3-c]pyridin-3-yl]phenyl}ethynyl)phenyl]-N-(tetrahydro-2H-pyran-4-ylmethyl)methanamine]	520	
CS(=O)(=O)N1CCc2c(c(-c3ccc(Cl)c(CCc4cccc(CNCC5CCOCC5)c4)c3)nn2CCCN2CCOCC2)C1 [Example 186, 1-[3-(2-{2-Chloro-5-[5-(methylsulfonyl)-1-(3-morpholin-4-ylpropyl)-4,5,6,7-tetrahydro-1H-pyrazolo[4,3-c]pyridin-3-yl]phenyl}ethyl)phenyl]-N-(tetrahydro-2H-pyran-4-ylmethyl)methanamine]	690	
CS(=O)(=O)N1CCc2c(c(-c3ccc(Cl)c(C#Cc4cccc(CNCc5ccccn5)c4)c3)nn2CCCN2CCOCC2)C1 [Example 187, 1-[3-({2-Chloro-5-[5-(methylsulfonyl)-1-(3-morpholin-4-ylpropyl)-4,5,6,7-tetrahydro-1H-pyrazolo[4,3-c]pyridin-3-yl]phenyl}ethynyl)phenyl]-N-(pyridin-2-ylmethyl)methanamine]	150	
COC(=O)CNCc1cccc(C#Cc2cc(-c3nn(CCCN4CCOCC4)c4c3CN(S(C)(=O)=O)CC4)ccc2Cl)c1 [Example 188, Methyl N-{[3-({2-chloro-5-[5-(methylsulfonyl)-1-(3-morpholin-4-ylpropyl)-4,5,6,7-tetrahydro-1H-pyrazolo[4,3-c]pyridin-3-yl]phenyl}ethynyl)phenyl]methyl}glycinate]	550	
CS(=O)(=O)N1CCc2c(c(-c3ccc(Cl)c(C#Cc4cccc(CNCC(=O)O)c4)c3)nn2CCCN2CCOCC2)C1 [Example 189, N-{[3-({2-Chloro-5-[5-(methylsulfonyl)-1-(3-morpholin-4-ylpropyl)-4,5,6,7-tetrahydro-1H-pyrazolo[4,3-c]pyridin-3-yl]phenyl}ethynyl)phenyl]methyl}glycine]	140	
COC(=O)[C@@H]1Cc2ccc(C#Cc3cc(-c4nn(CCCN5CCOCC5)c5c4CN(S(C)(=O)=O)CC5)ccc3Cl)cc2CN1C(=O)OC(C)(C)C [Example 190, 2-(1,1-Dimethylethyl) 3-methyl (3S)-7-({2-chloro-5-[5-(methylsulfonyl)-1-(3-morpholin-4-ylpropyl)-4,5,6,7-tetrahydro-1H-pyrazolo[4,3-c]pyridin-3-yl]phenyl}ethynyl)-3,4-dihydroisoquinoline-2,3(1H)-dicarboxylate]		1110
CC(C)(C)OC(=O)N1Cc2cc(C#Cc3cc(-c4nn(CCCN5CCOCC5)c5c4CN(S(C)(=O)=O)CC5)ccc3Cl)ccc2C[C@H]1C(=O)O [Example 191, (3S)-7-({2-Chloro-5-[5-(methylsulfonyl)-1-(3-morpholin-4-ylpropyl)-4,5,6,7-tetrahydro-1H-pyrazolo[4,3-c]pyridin-3-yl]phenyl}ethynyl)-2-{[(1,1-dimethylethyl)oxy]carbonyl}-1,2,3,4-tetrahydroisoquinoline-3-carboxylic acid]		630
CNC(=O)[C@@H]1Cc2ccc(C#Cc3cc(-c4nn(CCCN5CCOCC5)c5c4CN(S(C)(=O)=O)CC5)ccc3Cl)cc2CN1 [Example 192, (3S)-7-({2-Chloro-5-[5-(methylsulfonyl)-1-(3-morpholin-4-ylpropyl)-4,5,6,7-tetrahydro-1H-pyrazolo[4,3-c]pyridin-3-yl]phenyl}ethynyl)-N-methyl-1,2,3,4-tetrahydroisoquinoline-3-carboxamide]	80	
CN(C)C(=O)[C@@H]1Cc2ccc(C#Cc3cc(-c4nn(CCCN5CCOCC5)c5c4CN(S(C)(=O)=O)CC5)ccc3Cl)cc2CN1 [Example 193, (3S)-7-({2-Chloro-5-[5-(methylsulfonyl)-1-(3-morpholin-4-ylpropyl)-4,5,6,7-tetrahydro-1H-pyrazolo[4,3-c]pyridin-3-yl]phenyl}ethynyl)-N,N-dimethyl-1,2,3,4-tetrahydroisoquinoline-3-carboxamide]	50	
CS(=O)(=O)N1CCc2c(c(-c3ccc(Cl)c(C#Cc4ccc5c(c4)CN[C@H](C(=O)N4CCOCC4)C5)c3)nn2CCCN2CCOCC2)C1 [Example 194, (3S)-7-({2-Chloro-5-[5-(methylsulfonyl)-1-(3-morpholin-4-ylpropyl)-4,5,6,7-tetrahydro-1H-pyrazolo[4,3-c]pyridin-3-yl]phenyl}ethynyl)-3-(morpholin-4-ylcarbonyl)-1,2,3,4-tetrahydroisoquinoline]	20	
CS(=O)(=O)N1CCc2c(c(-c3ccc(Cl)c(C#Cc4ccc5c(c4)CN[C@@H](C(=O)N4CCCC4)C5)c3)nn2CCCN2CCOCC2)C1 [Example 196, (3R)-7-({2-Chloro-5-[5-(methylsulfonyl)-1-(3-morpholin-4-ylpropyl)-4,5,6,7-tetrahydro-1H-pyrazolo[4,3-c]pyridin-3-yl]phenyl}ethynyl)-3-(pyrrolidin-1-ylcarbonyl)-1,2,3,4-tetrahydroisoquinoline]	650	
CS(=O)(=O)N1CCc2c(c(-c3ccc(Cl)c(C#Cc4ccc5c(c4)CN[C@@H](C(N)=O)C5)c3)nn2CCCN2CCOCC2)C1 [Example 197, (3R)-7-({2-Chloro-5-[5-(methylsulfonyl)-1-(3-morpholin-4-ylpropyl)-4,5,6,7-tetrahydro-1H-pyrazolo[4,3-c]pyridin-3-yl]phenyl}ethynyl)-1,2,3,4-tetrahydroisoquinoline-3-carboxamide]	200	
COC(=O)[C@@H]1Cc2ccc(C#Cc3cc(-c4nn(CCCN5CCOCC5)c5c4CN(S(C)(=O)=O)CC5)ccc3Cl)cc2CN1 [Example 198, Methyl (3S)-7-({2-chloro-5-[5-(methylsulfonyl)-1-(3-morpholin-4-ylpropyl)-4,5,6,7-tetrahydro-1H-pyrazolo[4,3-c]pyridin-3-yl]phenyl}ethynyl)-1,2,3,4-tetrahydroisoquinoline-3-carboxylate]	70	
CS(=O)(=O)N1CCc2c(c(-c3ccc(Cl)c(C#Cc4ccc5c(c4)CN[C@H](C(=O)O)C5)c3)nn2CCCN2CCOCC2)C1 [Example 199, (3S)-7-({2-Chloro-5-[5-(methylsulfonyl)-1-(3-morpholin-4-ylpropyl)-4,5,6,7-tetrahydro-1H-pyrazolo[4,3-c]pyridin-3-yl]phenyl}ethynyl)-1,2,3,4-tetrahydroisoquinoline-3-carboxylic acid]		60
COC(=O)[C@H]1Cc2ccc(C#Cc3cc(-c4nn(CCCN5CCOCC5)c5c4CN(S(C)(=O)=O)CC5)ccc3Cl)cc2CN1 [Example 200, Methyl (3R)-7-({2-chloro-5-[5-(methylsulfonyl)-1-(3-morpholin-4-ylpropyl)-4,5,6,7-tetrahydro-1H-pyrazolo[4,3-c]pyridin-3-yl]phenyl}ethynyl)-1,2,3,4-tetrahydroisoquinoline-3-carboxylate]	90	
CS(=O)(=O)N1CCc2c(c(-c3ccc(Cl)c(C#Cc4ccc5c(c4)CN[C@@H](CO)C5)c3)nn2CCCN2CCOCC2)C1 [Example 201, [(3R)-7-({2-Chloro-5-[5-(methylsulfonyl)-1-(3-morpholin-4-ylpropyl)-4,5,6,7-tetrahydro-1H-pyrazolo[4,3-c]pyridin-3-yl]phenyl}ethynyl)-1,2,3,4-tetrahydroisoquinolin-3-yl]methanol]	190	
CS(=O)(=O)N1CCc2c(c(-c3ccc(Cl)c(C#Cc4ccc5c(c4)CN[C@@H](C(=O)O)C5)c3)nn2CCCN2CCOCC2)C1 [Example 202, (3R)-7-({2-Chloro-5-[5-(methylsulfonyl)-1-(3-morpholin-4-ylpropyl)-4,5,6,7-tetrahydro-1H-pyrazolo[4,3-c]pyridin-3-yl]phenyl}ethynyl)-1,2,3,4-tetrahydroisoquinoline-3-carboxylic acid]		390
COC(=O)C1Cc2cc(C#Cc3cc(-c4nn(CCCN5CCOCC5)c5c4CN(S(C)(=O)=O)CC5)ccc3Cl)ccc2CN1C(=O)OC(C)(C)C (stereo not shown) [Example 203, 2-(1,1-Dimethylethyl) 3-methyl 6-({2-chloro-5-[5-(methylsulfonyl)-1-(3-morpholin-4-ylpropyl)-4,5,6,7-tetrahydro-1H-pyrazolo[4,3-c]pyridin-3-yl]phenyl}ethynyl)-3,4-dihydroisoquinoline-2,3(1H)-dicarboxylate]		570
CS(=O)(=O)N1CCc2c(c(-c3ccc(Cl)c(C#Cc4ccc5c(c4)CC(C(=O)N4CCCCC4)NC5)c3)nn2CCCN2CCOCC2)C1 (stereo not shown) [Example 204, 6-({2-Chloro-5-[5-(methylsulfonyl)-1-(3-morpholin-4-ylpropyl)-4,5,6,7-tetrahydro-1H-pyrazolo[4,3-c]pyridin-3-yl]phenyl}ethynyl)-3-(piperidin-1-ylcarbonyl)-1,2,3,4-tetrahydroisoquinoline]		120
COC(=O)C1Cc2cc(C#Cc3cc(-c4nn(CCCN5CCOCC5)c5c4CN(S(C)(=O)=O)CC5)ccc3Cl)ccc2CN1 (stereo not shown) [Example 205, Methyl 6-({2-chloro-5-[5-(methylsulfonyl)-1-(3-morpholin-4-ylpropyl)-4,5,6,7-tetrahydro-1H-pyrazolo[4,3-c]pyridin-3-yl]phenyl}ethynyl)-1,2,3,4-tetrahydroisoquinoline-3-carboxylate]		270
CS(=O)(=O)N1CCc2c(c(-c3ccc(Cl)c(C#Cc4ccc5c(c4)CC(CO)NC5)c3)nn2CCCN2CCOCC2)C1 (stereo not shown) [Example 206, [6-({2-Chloro-5-[5-(methylsulfonyl)-1-(3-morpholin-4-ylpropyl)-4,5,6,7-tetrahydro-1H-pyrazolo[4,3-c]pyridin-3-yl]phenyl}ethynyl)-1,2,3,4-tetrahydroisoquinolin-3-yl]methanol]		210
COC(=O)C1c2ccc(C#Cc3cc(-c4nn(CCCN5CCOCC5)c5c4CN(S(C)(=O)=O)CC5)ccc3Cl)cc2CCN1C(=O)OC(C)(C)C (stereo not shown) [Example 207, 2-(1,1-Dimethylethyl) 1-methyl 6-({2-chloro-5-[5-(methylsulfonyl)-1-(3-morpholin-4-ylpropyl)-4,5,6,7-tetrahydro-1H-pyrazolo[4,3-c]pyridin-3-yl]phenyl}ethynyl)-3,4-dihydroisoquinoline-1,2(1H)-dicarboxylate]		2860
